Target: T1, hCB1 (Homo sapiens, UniProt P21554)
T1 construct: made in house; host or cells: Sf9 insect cells (baculovirus), P2 membranes
Experiment: Agonist-induced GTP binding (GTPγ35S) assay at CB1, Example 8
Assay type: biochemical
Settings: IC50 at CB1, determined as described in Example 8; read-out: IC50
Procedure, shortened: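 Antagonism read as inhibition of 1 nM CP55,940-stimulated GTPγ35S ([…]) binding, compounds at 10^−10 to 10^−5 M. Baculovirus-infected Sf9 membranes bearing hCB1 plus G-protein subunits, 60 min room-temperature incubation with 5 μM GDP. Filtration and scintillation counting; data as percent over basal.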

T1 sequence (P21554 whole entry): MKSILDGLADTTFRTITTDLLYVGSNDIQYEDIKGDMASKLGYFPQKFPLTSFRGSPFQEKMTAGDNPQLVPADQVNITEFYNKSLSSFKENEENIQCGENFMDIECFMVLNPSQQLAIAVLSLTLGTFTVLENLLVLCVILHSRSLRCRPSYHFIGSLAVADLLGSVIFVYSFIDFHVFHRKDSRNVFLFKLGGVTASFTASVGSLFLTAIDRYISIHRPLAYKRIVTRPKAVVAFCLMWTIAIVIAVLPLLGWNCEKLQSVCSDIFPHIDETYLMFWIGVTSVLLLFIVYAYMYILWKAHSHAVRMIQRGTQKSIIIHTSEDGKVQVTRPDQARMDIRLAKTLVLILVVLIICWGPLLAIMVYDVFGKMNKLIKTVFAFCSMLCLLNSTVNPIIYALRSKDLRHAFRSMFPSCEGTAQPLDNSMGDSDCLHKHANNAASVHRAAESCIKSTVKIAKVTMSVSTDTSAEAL

| IC50 [nM] | SMILES |
| --- | --- |
| < 2000 | CCOC(=O)c1ccc(NC(=O)Nc2cccc(OCC)c2)cc1 [Compound 662, ethyl 4-({[(3-ethoxyphenyl)amino]carbonyl}amino)benzoate] |
| < 2000 | CCOc1ccc(NC(=O)Nc2cccc(C(=O)OC)c2)cc1 [Compound 663, methyl 3-({[(4-ethoxyphenyl)amino]carbonyl}amino)benzoate] |
| < 2000 | CCOC(=O)c1cccc(NC(=O)Nc2ccc(OCC)cc2)c1 [Compound 664, ethyl 3-({[(4-ethoxyphenyl)amino]carbonyl}amino)benzoate] |
| < 2000 | COCc1cccc(NC(=O)Nc2ccc(C(=O)OC)cc2)c1 [Compound 665, methyl 4-[({[3-(methoxymethyl)phenyl]amino}carbonyl)amino]benzoate] |
| < 2000 | CCOC(=O)c1ccc(NC(=O)Nc2cccc(COC)c2)cc1 [Compound 666, ethyl 4-[({[3-(methoxymethyl)phenyl]amino}carbonyl)amino]benzoate] |
| < 2000 | COCc1ccc(NC(=O)Nc2cccc(C(=O)OC)c2)cc1 [Compound 667, methyl 3-[({[4-(methoxymethyl)phenyl]amino}carbonyl)amino]benzoate] |
| < 2000 | COCc1ccc(NC(=O)Nc2ccc(C(=O)OC)cc2)cc1 [Compound 668, methyl 4-[({[4-(methoxymethyl)phenyl]amino}carbonyl)amino]benzoate] |
| < 2000 | CCOC(=O)c1cccc(NC(=O)Nc2ccc(COC)cc2)c1 [Compound 669, ethyl 3-[({[4-(methoxymethyl)phenyl]amino}carbonyl)amino]benzoate] |
| < 2000 | CCOC(=O)c1ccc(NC(=O)Nc2ccc(COC)cc2)cc1 [Compound 670, ethyl 4-[({[4-(methymethyl)phenyl]amino}carbonyl)amino]benzoate] |
| < 2000 | CCCOc1ccc(NC(=O)Nc2cccc(C(=O)OCC)c2)cc1 [Compound 671, ethyl 3-({[(4-propoxyphenyl)amino]carbonyl}amino)benzoate] |
| < 2000 | CCOC(=O)c1cccc(NC(=O)Nc2cccc(OC(C)C)c2)c1 [Compound 672, ethyl 3-({[(3-isopropoxyphenyl)amino]carbonyl}amino)benzoate] |
| < 2000 | CCOC(=O)c1ccc(NC(=O)Nc2cccc(OC(C)C)c2)cc1 [Compound 673, ethyl 4-({[(3-isopropoxyphenyl)amino]carbonyl}amino)benzoate] |
| < 2000 | CCOC(=O)c1cccc(NC(=O)Nc2ccc(OC(C)C)cc2)c1 [Compound 674, ethyl 3-({[(4-isopropoxyphenyl)amino]carbonyl}amino)benzoate] |
| < 2000 | CCOC(=O)c1ccc(NC(=O)Nc2ccc(OC(C)C)cc2)cc1 [Compound 675, ethyl 4-({[(4-isopropoxyphenyl)amino]carbonyl}amino)benzoate] |
| < 2000 | COC(=O)c1cccc(NC(=O)Nc2cccc(OC(F)F)c2)c1 [Compound 676, methyl 3-[({[3-(difluoromethoxy)phenyl]amino}carbonyl)amino]benzoate] |
| < 2000 | COC(=O)c1ccc(NC(=O)Nc2cccc(OC(F)F)c2)cc1 [Compound 677, methyl 4-[({[3-(difluoromethoxy)phenyl]amino}carbonyl)amino]benzoate] |
| < 2000 | CCOC(=O)c1ccc(NC(=O)Nc2cccc(OC(F)F)c2)cc1 [Compound 678, ethyl 4-[({[3-(difluoromethoxy)phenyl]amino}carbonyl)amino]benzoate] |
| < 2000 | COC(=O)c1cccc(NC(=O)Nc2ccc(OC(F)F)cc2)c1 [Compound 679, methyl 3-[({[4-(difluoromethoxy)phenyl]amino}carbonyl)amino]benzoate] |
| < 2000 | CCOc1cccc(NC(=O)Nc2ccc(C)c(C)c2)c1 [Compound 680, 1-(3,4-dimethylphenyl)-3-(3-ethoxyphenyl)urea] |
| < 2000 | CCOc1cccc(NC(=O)Nc2ccc(C)c(F)c2)c1 [Compound 681, 1-(3-ethoxyphenyl)-3-(3-fluoro-4-methylphenyl)urea] |
| < 2000 | CCOc1cccc(NC(=O)Nc2ccc(F)c(C)c2)c1 [Compound 682, 1-(3-ethoxyphenyl)-3-(4-fluoro-3-methylphenyl)urea] |
| < 2000 | CCOc1cccc(NC(=O)Nc2ccc(F)c(F)c2)c1 [Compound 683, 1-(3,4-difluorophenyl)-3-(3-ethoxyphenyl)urea] |
| < 2000 | COCc1ccc(NC(=O)Nc2ccc(C)c(C)c2)cc1 [Compound 684, 1-(3,4-dimethylphenyl)-3-[4-(methoxymethyl)phenyl]urea] |
| < 2000 | COCc1ccc(NC(=O)Nc2ccc(C)c(F)c2)cc1 [Compound 685, 1-(3-fluoro-4-methylphenyl)-3-[4-(methoxymethyl)phenyl]urea] |
| < 2000 | CCCOc1ccc(NC(=O)Nc2ccc(F)c(F)c2)cc1 [Compound 686, 1-(3,4-difluorophenyl)-3-(4-propoxyphenyl)urea] |
| < 2000 | Cc1ccc(NC(=O)Nc2cccc(OC(C)C)c2)cc1C [Compound 687, 1-(3,4-dimethylphenyl)-3-(3-isopropoxyphenyl)urea] |

| IC50 [nM] | SMILES |
| --- | --- |
| < 2000 | Cc1ccc(NC(=O)Nc2cccc(OC(C)C)c2)cc1F [Compound 688, 1-(3-fluoro-4-methylphenyl)-3-(3-isopropoxyphenyl)urea] |
| < 2000 | Cc1cc(NC(=O)Nc2cccc(OC(C)C)c2)ccc1F [Compound 689, 1-(4-fluoro-3-methylphenyl)-3-(3-isopropoxyphenyl)urea] |
| < 2000 | CC(C)Oc1cccc(NC(=O)Nc2ccc(F)c(F)c2)c1 [Compound 690, 1-(3,4-difluorophenyl)-3-(3-isopropoxyphenyl)urea] |
| < 2000 | Cc1ccc(NC(=O)Nc2ccc(OC(C)C)cc2)cc1C [Compound 691, 1-(3,4-dimethylphenyl)-3-(4-isopropoxyphenyl)urea] |
| < 2000 | Cc1ccc(NC(=O)Nc2ccc(OC(C)C)cc2)cc1F [Compound 692, 1-(3-fluoro-4-methylphenyl)-3-(4-isopropoxyphenyl)urea] |
| < 2000 | Cc1cc(NC(=O)Nc2ccc(OC(C)C)cc2)ccc1F [Compound 693, 1-(4-fluoro-3-methylphenyl)-3-(4-isopropoxyphenyl)urea] |
| < 2000 | CC(C)Oc1ccc(NC(=O)Nc2ccc(F)c(F)c2)cc1 [Compound 694, 1-(3,4-difluorophenyl)-3-(4-isopropoxyphenyl)urea] |
| < 2000 | Cc1ccc(NC(=O)Nc2cccc(OC(F)F)c2)cc1C [Compound 695, 1-[3-(difluoromethoxy)phenyl]-3-(3,4-dimethylphenyl)urea] |
| < 2000 | Cc1ccc(NC(=O)Nc2cccc(OC(F)F)c2)cc1F [Compound 696, 1-[3-(difluoromethoxy)phenyl]-3-(3-fluoro-4-methylphenyl)urea] |
| < 2000 | Cc1cc(NC(=O)Nc2cccc(OC(F)F)c2)ccc1F [Compound 697, 1-[3-(difluoromethoxy)phenyl]-3-(4-fluoro-3-methylphenyl)urea] |
| < 2000 | Cc1ccc(F)cc1NC(=O)Nc1ccc(OC(C)C)cc1 [Compound 698, 1-(5-fluoro-2-methylphenyl)-3-(4-isopropoxyphenyl)urea] |
| < 2000 | Cc1ccc(F)c(NC(=O)Nc2cccc(OC(F)F)c2)c1 [Compound 699, 1-[3-(difluoromethoxy)phenyl]-3-(2-fluoro-5-methylphenyl)urea] |
| < 2000 | Cc1ccc(F)cc1NC(=O)Nc1cccc(OC(F)F)c1 [Compound 700, 1-[3-(difluoromethoxy)phenyl]-3-(5-fluoro-2-methylphenyl)urea] |
| < 2000 | COc1ccc(NC(=O)Nc2cc(F)cc(F)c2)cc1 [Compound 701, 1-(3,5-difluorophenyl)-3-(4-methoxyphenyl)urea] |
| < 2000 | CCOc1cccc(NC(=O)Nc2cc(F)cc(F)c2)c1 [Compound 702, 1-(3,5-difluorophenyl)-3-(3-ethoxyphenyl)urea] |
| < 2000 | CCOc1cccc(NC(=O)Nc2ccc(C)cc2C)c1 [Compound 703, 1-(2,4-dimethylphenyl)-3-(3-ethoxyphenyl)urea] |
| < 2000 | CCOc1ccc(NC(=O)Nc2cc(C)cc(C)c2)cc1 [Compound 704, 1-(3,5-dimethylphenyl)-3-(4-ethoxyphenyl)urea] |
| < 2000 | COCc1ccc(NC(=O)Nc2cc(F)cc(F)c2)cc1 [Compound 705, 1-(3,5-difluorophenyl)-3-[4-(methoxymethyl)phenyl]urea] |
| < 2000 | CCCOc1ccc(NC(=O)Nc2cc(C)cc(C)c2)cc1 [Compound 706, 1-(3,5-dimethylphenyl)-3-(4-propoxyphenyl)urea] |
| < 2000 | Cc1cc(C)cc(NC(=O)Nc2cccc(OC(C)C)c2)c1 [Compound 707, 1-(3,5-dimethylphenyl)-3-(3-isopropoxyphenyl)urea] |
| < 2000 | CC(C)Oc1cccc(NC(=O)Nc2cc(F)cc(F)c2)c1 [Compound 708, 1-(3,5-difluorophenyl)-3-(3-isopropoxyphenyl)urea] |
| < 2000 | CC(C)Oc1ccc(NC(=O)Nc2cc(F)cc(F)c2)cc1 [Compound 709, 1-(3,5-difluorophenyl)-3-(4-isopropoxyphenyl)urea] |
| < 2000 | Cc1cc(C)cc(NC(=O)Nc2cccc(OC(F)F)c2)c1 [Compound 710, 1-[3-(difluoromethoxy)phenyl]-3-(3,5-dimethylphenyl)urea] |
| < 2000 | Cc1ccc(NC(=O)Nc2cccc(OC(F)F)c2)c(C)c1 [Compound 711, 1-[3-(difluoromethoxy)phenyl]-3-(2,4-dimethylphenyl)urea] |
| < 2000 | COC(=O)c1cccc(NC(=O)Nc2ccc(CC#N)cc2)c1 [Compound 712, methyl 3-[({[4-(cyanomethyl)phenyl]amino}carbonyl)amino]benzoate] |
| < 2000 | COC(=O)c1ccc(NC(=O)Nc2ccc(CC#N)cc2)cc1 [Compound 713, methyl 4-[({[4-(cyanomethyl)phenyl]amino}carbonyl)amino]benzoate] |
